Results from PubChem BioAssay AID1963828 (Molecular Pharmacology Branch, DTP, NCI, 2024).
pIC50: −log10 of the molar value.

System: 991263-137-R1-J2-PDC complex spheroid viability
Assay: Anticancer human tumor 991263-137-R1-J2-PDC patient-derived colon adenocarcinoma cell line growth inhibition [POLQ]
Settings: for pIC50: curve of first compound; for viability, T/C: stronger effect = lower value
In short: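 Patient-derived tumour cells were co-cultured with HUVEC and mesenchymal stem cells as multicellular spheroids at 37 °C. They were treated with POLQ inhibitors (novobiocin, ART-558, RP6685) alone or combined with other agents. Top concentrations were at or near clinical Cmax (otherwise 10 microM; SN-38 at 1 microM), decreasing in half-log steps.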

[1] = second compound 0.0316 µM, first compound 0.0316 µM
[2] = second compound 0.0316 µM, first compound 0.1 µM
[3] = second compound 0.0316 µM, first compound 0.316 µM
[4] = second compound 0.0316 µM, first compound 1 µM
[5] = second compound 0.0316 µM, first compound 3.16 µM
[6] = second compound 0.0316 µM, first compound 10 µM
[7] = second compound 0.1 µM, first compound 0.0316 µM
[8] = second compound 0.1 µM, first compound 0.1 µM
[9] = second compound 0.1 µM, first compound 0.316 µM
[10] = second compound 0.1 µM, first compound 1 µM
[11] = second compound 0.1 µM, first compound 3.16 µM
[12] = second compound 0.1 µM, first compound 10 µM
[13] = second compound 0.316 µM, first compound 0.0316 µM
[14] = second compound 0.316 µM, first compound 0.1 µM
[15] = second compound 0.316 µM, first compound 0.316 µM
[16] = second compound 0.316 µM, first compound 1 µM
[17] = second compound 0.316 µM, first compound 3.16 µM
[18] = second compound 0.316 µM, first compound 10 µM
[19] = second compound 1 µM, first compound 0.0316 µM
[20] = second compound 1 µM, first compound 0.1 µM
[21] = second compound 1 µM, first compound 0.316 µM
[22] = second compound 1 µM, first compound 1 µM
[23] = second compound 1 µM, first compound 3.16 µM
[24] = second compound 1 µM, first compound 10 µM
[25] = second compound 3.16 µM, first compound 0.0316 µM
[26] = second compound 3.16 µM, first compound 0.1 µM
[27] = second compound 3.16 µM, first compound 0.316 µM
[28] = second compound 3.16 µM, first compound 1 µM
[29] = second compound 3.16 µM, first compound 3.16 µM
[30] = second compound 3.16 µM, first compound 10 µM
[31] = second compound 10 µM, first compound 0.0316 µM
[32] = second compound 10 µM, first compound 0.1 µM
[33] = second compound 10 µM, first compound 0.316 µM
[34] = second compound 10 µM, first compound 1 µM
[35] = second compound 10 µM, first compound 3.16 µM
[36] = second compound 10 µM, first compound 10 µM
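Note: spheroids exposed to compounds for 7 days before readout.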
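Throughout, for viability, T/C: 100% = DMSO vehicle control viability.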

Structure (SMILES): C=CC(=O)N1CCN(c2nc(=O)n(-c3c(C)ccnc3C(C)C)c3nc(-c4c(O)cccc4F)c(F)cc23)C(C)C1 (centres undefined) + COC1C(OC(N)=O)C(O)C(Oc2ccc3c(O)c(NC(=O)c4ccc(O)c(CC=C(C)C)c4)c(=O)oc3c2C)OC1(C)C
- pIC50 (second compound 0.0316 µM): < 5.00
- pIC50 (second compound 0.1 µM): < 5.00
- pIC50 (second compound 0.316 µM): < 5.00
- pIC50 (second compound 1 µM): < 5.00
- pIC50 (second compound 3.16 µM): < 5.00
- pIC50 (second compound 10 µM): < 5.00
- viability, T/C [1]: 114%
- viability, T/C [2]: 123%
- viability, T/C [3]: 115%
- viability, T/C [4]: 103%
- viability, T/C [5]: 104%
- viability, T/C [6]: 93.3%
- viability, T/C [7]: 108%
- viability, T/C [8]: 129%
- viability, T/C [9]: 115%
- viability, T/C [10]: 115%
- viability, T/C [11]: 114%
- viability, T/C [12]: 95.5%
- viability, T/C [13]: 115%
- viability, T/C [14]: 124%
- viability, T/C [15]: 109%
- viability, T/C [16]: 98.8%
- viability, T/C [17]: 133%
- viability, T/C [18]: 99.9%
- viability, T/C [19]: 107%
- viability, T/C [20]: 106%
- viability, T/C [21]: 110%
- viability, T/C [22]: 120%
- viability, T/C [23]: 115%
- viability, T/C [24]: 119%
- viability, T/C [25]: 98.8%
- viability, T/C [26]: 110%
- viability, T/C [27]: 109%
- viability, T/C [28]: 114%
- viability, T/C [29]: 104%
- viability, T/C [30]: 122%
- viability, T/C [31]: 88.3%
- viability, T/C [32]: 124%
- viability, T/C [33]: 123%
- viability, T/C [34]: 109%
- viability, T/C [35]: 117%
- viability, T/C [36]: 104%

Structure (SMILES): CCc1cc2c(N3CCc4c(cc(Cn5ccnc5)cc4-c4cn(C)nc4C(F)(F)F)C3=O)cc(C)nc2c(OC)n1 + COC1C(OC(N)=O)C(O)C(Oc2ccc3c(O)c(NC(=O)c4ccc(O)c(CC=C(C)C)c4)c(=O)oc3c2C)OC1(C)C
- pIC50 (second compound 0.0316 µM): < 5.00
- pIC50 (second compound 0.1 µM): < 5.00
- pIC50 (second compound 0.316 µM): < 5.00
- pIC50 (second compound 1 µM): < 5.00
- pIC50 (second compound 3.16 µM): < 5.00
- pIC50 (second compound 10 µM): < 5.00
- viability, T/C [1]: 108%
- viability, T/C [2]: 89.5%
- viability, T/C [3]: 103%
- viability, T/C [4]: 91.4%
- viability, T/C [5]: 100%
- viability, T/C [6]: 79.9%
- viability, T/C [7]: 109%
- viability, T/C [8]: 117%
- viability, T/C [9]: 102%
- viability, T/C [10]: 89.1%
- viability, T/C [11]: 106%
- viability, T/C [12]: 101%
- viability, T/C [13]: 99.6%
- viability, T/C [14]: 113%
- viability, T/C [15]: 95.9%
- viability, T/C [16]: 92.2%
- viability, T/C [17]: 100%
- viability, T/C [18]: 88.9%
- viability, T/C [19]: 97.4%
- viability, T/C [20]: 93.8%
- viability, T/C [21]: 81.1%
- viability, T/C [22]: 95.8%
- viability, T/C [23]: 106%
- viability, T/C [24]: 82.2%
- viability, T/C [25]: 105%
- viability, T/C [26]: 113%
- viability, T/C [27]: 101%
- viability, T/C [28]: 102%
- viability, T/C [29]: 102%
- viability, T/C [30]: 86.1%
- viability, T/C [31]: 95.4%
- viability, T/C [32]: 104%
- viability, T/C [33]: 89.8%
- viability, T/C [34]: 105%
- viability, T/C [35]: 86.4%
- viability, T/C [36]: 89.4%
